ChEMBL document CHEMBL4765476, “MCC950, a NLRP3 inhibitor, ameliorates lipopolysaccharide-induced lung inflammation in mice” (Bioorg Med Chem, 2021)
Activity calls are given as the source filed them. The rule behind the calls is not given here.

What was measured:
[1] = tested on: Mus musculus; assay: Antiinflammatory activity in ICR mouse assessed as reduction in LPS-induced neutrophils in BALF at 10 mg/kg, INH administered 18 hrs before LPS-stimulation and measured after 24 hrs by FACS analysis relative to control; format: functional; conditions: time 42 hrs
[2] = tested on: Mus musculus; assay: Antiinflammatory activity in ICR mouse assessed as reduction in LPS-induced neutrophils in BALF at 50 mg/kg, INH administered 18 hrs before LPS-stimulation and measured after 24 hrs by FACS analysis relative to control; format: functional; conditions: time 42 hrs
[3] = tested on: Mus musculus; assay: Antiinflammatory activity in ICR mouse assessed as reduction in LPS-induced macrophages level in BALF at 10 mg/kg, INH administered 18 hrs before LPS-stimulation and measured after 24 hrs by FACS analysis relative to control; format: functional; conditions: time 42 hrs
[4] = tested on: Mus musculus; assay: Antiinflammatory activity in ICR mouse assessed as reduction in LPS-induced macrophages level in BALF at 50 mg/kg, INH administered 18 hrs before LPS-stimulation and measured after 24 hrs by FACS analysis relative to control; format: functional; conditions: time 42 hrs
[5] = tested on: Mus musculus; assay: Antiinflammatory activity in ICR mouse assessed as reduction in LPS-induced lymphocyte level in BALF at 10 mg/kg, INH administered 18 hrs before LPS-stimulation and measured after 24 hrs by FACS analysis relative to control; format: functional; conditions: time 42 hrs
[6] = tested on: Mus musculus; assay: Antiinflammatory activity in ICR mouse assessed as reduction in LPS-induced lymphocyte level in BALF at 50 mg/kg, INH administered 18 hrs before LPS-stimulation and measured after 24 hrs by FACS analysis relative to control; format: functional; conditions: time 42 hrs
[7] = tested on: Mus musculus; assay: Antiinflammatory activity in ICR mouse assessed as reduction in LPS-induced neutrophils in BALF at 10 mg/kg, ip administered 18 hrs before LPS-stimulation and measured after 24 hrs by FACS analysis relative to control; format: functional; conditions: time 42 hrs
[8] = tested on: Mus musculus; assay: Antiinflammatory activity in ICR mouse assessed as reduction in LPS-induced neutrophils in BALF at 50 mg/kg, ip administered 18 hrs before LPS-stimulation and measured after 24 hrs by FACS analysis relative to control; format: functional; conditions: time 42 hrs
[9] = tested on: Mus musculus; assay: Antiinflammatory activity in ICR mouse assessed as reduction in LPS-induced macrophage level in BALF at 10 mg/kg, ip administered 18 hrs before LPS-stimulation and measured after 24 hrs by FACS analysis relative to control; format: functional; conditions: time 42 hrs
[10] = tested on: Mus musculus; assay: Antiinflammatory activity in ICR mouse assessed as reduction in LPS-induced macrophage level in BALF at 50 mg/kg, ip administered 18 hrs before LPS-stimulation and measured after 24 hrs by FACS analysis relative to control; format: functional; conditions: time 42 hrs
[11] = tested on: Mus musculus; assay: Antiinflammatory activity in ICR mouse assessed as reduction in LPS-induced lymphocyte level in BALF at 10 mg/kg, ip administered 18 hrs before LPS-stimulation and measured after 24 hrs by FACS analysis relative to control; format: functional; conditions: time 42 hrs
[12] = tested on: Mus musculus; assay: Antiinflammatory activity in ICR mouse assessed as reduction in LPS-induced lymphocyte level in BALF at 50 mg/kg, ip administered 18 hrs before LPS-stimulation and measured after 24 hrs by FACS analysis relative to control; format: functional; conditions: time 42 hrs
[13] = tested on: Mus musculus; assay: Antiinflammatory activity in ICR mouse assessed as reduction in LPS-induced neutrophil infiltration in lungs at 10 mg/kg, INH administered 18 hrs before LPS-stimulation and measured after 24 hrs by H and E staining based imaging analysis relative to control; format: functional; conditions: time 42 hrs
[14] = tested on: Mus musculus; assay: Antiinflammatory activity in ICR mouse assessed as reduction in LPS-induced neutrophil infiltration in lungs at 50 mg/kg, INH administered 18 hrs before LPS-stimulation and measured after 24 hrs by H and E staining based imaging analysis relative to control; format: functional; conditions: time 42 hrs
[15] = tested on: Mus musculus; assay: Antiinflammatory activity in ICR mouse assessed as reduction in LPS-induced neutrophil infiltration in lungs at 10 mg/kg, ip administered 18 hrs before LPS-stimulation and measured after 24 hrs by H and E staining based imaging analysis relative to control; format: functional; conditions: time 42 hrs
[16] = tested on: Mus musculus; assay: Antiinflammatory activity in ICR mouse assessed as reduction in LPS-induced neutrophil infiltration in lungs at 50 mg/kg, ip administered 18 hrs before LPS-stimulation and measured after 24 hrs by H and E staining based imaging analysis relative to control; format: functional; conditions: time 42 hrs
[17] = species: Mus musculus; conditions: ICR, dose 10-50 mg/kg, time 42.0 hrs
[18] = species: Mus musculus; conditions: ICR, dose 10-50 mg/kg, time 42.0 hrs; remark: listed apart in the source
[19] = species: Mus musculus; conditions: ICR, dose 10-50 mg/kg, time 42.0 hrs; remark: listed apart in the source
[20] = species: Mus musculus; conditions: ICR, dose 50.0 mg/kg, time 42.0 hrs
[21] = species: Mus musculus; conditions: ICR, dose 10.0 mg/kg, time 42.0 hrs
[22] = species: Mus musculus; conditions: ICR, dose 10-50 mg/kg, time 42.0 hrs; remark: listed apart in the source
[23] = species: Mus musculus; conditions: ICR, dose 10-50 mg/kg, time 42.0 hrs; remark: listed apart in the source
[24] = species: Mus musculus; conditions: ICR, dose 10-50 mg/kg, time 42.0 hrs; remark: listed apart in the source
[25] = species: Mus musculus; conditions: ICR, dose 10-50 mg/kg, time 42.0 hrs; remark: listed apart in the source
[26] = species: Mus musculus; conditions: ICR, dose 10-50 mg/kg, time 42.0 hrs; remark: listed apart in the source
[27] = species: Mus musculus; conditions: ICR, dose 10-50 mg/kg, time 42.0 hrs; remark: listed apart in the source
[28] = species: Mus musculus; conditions: ICR, dose 10-50 mg/kg, time 42.0 hrs; remark: listed apart in the source
[29] = species: Mus musculus; conditions: ICR, dose 10-50 mg/kg, time 42.0 hrs; remark: listed apart in the source
[30] = species: Mus musculus; conditions: ICR, dose 10-50 mg/kg, time 42.0 hrs; remark: listed apart in the source
[31] = species: Mus musculus; conditions: ICR, dose 10-50 mg/kg, time 42.0 hrs; remark: listed apart in the source
[32] = species: Mus musculus; conditions: ICR, dose 10-50 mg/kg, time 42.0 hrs; remark: listed apart in the source
[33] = species: Mus musculus; conditions: ICR, dose 10-50 mg/kg, time 42.0 hrs; remark: listed apart in the source

How did the inhibition in vivo at 10 mg/kg [1] turn out when `CC(C)(O)c1coc(S(=O)(=O)NC(=O)Nc2c3c(cc4c2CCC4)CCC3)c1` was run?
Its inhibition in vivo at 10 mg/kg is 46.5%.

What about the inhibition in vivo at 50 mg/kg [2] of the same compound?
The inhibition in vivo at 50 mg/kg was 71.7%.

What about the inhibition in vivo at 10 mg/kg [3] of the same compound?
The inhibition in vivo at 10 mg/kg was 36.6%.

What about the inhibition in vivo at 50 mg/kg [4] of the same compound?
The inhibition in vivo at 50 mg/kg was 43.8%.

What about the inhibition in vivo at 10 mg/kg [5] of the same compound?
The inhibition in vivo at 10 mg/kg was 28.3%.

And the inhibition in vivo at 50 mg/kg [6]?
Its inhibition in vivo at 50 mg/kg is 34.9%.

What about the inhibition in vivo at 10 mg/kg [7] of the same compound?
Its inhibition in vivo at 10 mg/kg is 44.2%.

What about the inhibition in vivo at 50 mg/kg [8] of the same compound?
The inhibition in vivo at 50 mg/kg was 67.8%.

And the inhibition in vivo at 10 mg/kg [9]?
Its inhibition in vivo at 10 mg/kg is 53.2%.

What about the inhibition in vivo at 50 mg/kg [10] of the same compound?
Its inhibition in vivo at 50 mg/kg is 76.7%.

What about the inhibition in vivo at 10 mg/kg [11] of the same compound?
Its inhibition in vivo at 10 mg/kg is 40.3%.

What about the inhibition in vivo at 50 mg/kg [12] of the same compound?
Its inhibition in vivo at 50 mg/kg is 49.8%.

And the inhibition in vivo at 10 mg/kg [13]?
Its inhibition in vivo at 10 mg/kg is 35.3%.

And the inhibition in vivo at 50 mg/kg [14]?
Its inhibition in vivo at 50 mg/kg is 52.9%.

What about the inhibition in vivo at 10 mg/kg [15] of the same compound?
The inhibition in vivo at 10 mg/kg was 37.1%.

What about the inhibition in vivo at 50 mg/kg [16] of the same compound?
The inhibition in vivo at 50 mg/kg was 51.4%.

And the inhibition [17]?
Its inhibition is “Active”.

And the inhibition [18]?
The inhibition was “Active”.

And the inhibition [19]?
Its inhibition is “Active”.

What about the inhibition [20] of the same compound?
The inhibition was “Active”.

And the inhibition [21]?
The inhibition was “inactive”.

And the inhibition [22]?
Its inhibition is “Active”.

And the inhibition [23]?
The inhibition was “Active”.

What about the inhibition [24] of the same compound?
The inhibition was “Active”.

What about the inhibition [25] of the same compound?
The inhibition was “Active”.

What about the inhibition [26] of the same compound?
The inhibition was “Active”.

And the inhibition [27]?
Its inhibition is “Active”.

And the inhibition [28]?
Its inhibition is “Active”.

And the inhibition [29]?
Its inhibition is “Active”.

And the inhibition [30]?
The inhibition was “Active”.

And the inhibition [31]?
Its inhibition is “Active”.

What about the inhibition [32] of the same compound?
Its inhibition is “Active”.

And the inhibition [33]?
The inhibition was “Active”.
